Some test systems named below: U251 CNS; EKVX NSCLC; SNB-19 CNS; SK-MEL-5 melanoma; SF-539 CNS; DU-145 prostate; HCC-2998 colon; SN12C renal; UACC-257 melanoma; PC-3 prostate.
Assay in all cases: NCI-60 cell line screen, 48 h

Several values for one entry are separate records, joined by “and”; a condition that tells them apart may be missing. Equal entries are not always repeated.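 96-well plates; 48 h exposure; 5 concentrations. Endpoints by linear interpolation between flanking doses. Not reached: highest tested concentration assigned. GI50 is the concentration that inhibits growth by half. At the TGI there is no net growth.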

As to `COc1ccc(C(=O)Nc2ccc(O)c(=O)cc2)cc1`, the TGI with U251 CNS is more than 100 µM; with EKVX NSCLC it was 59 µM; in the experiment on SNB-19 CNS, 93.6 µM; in the experiment on SK-MEL-5 melanoma it was more than 100 µM; in the experiment with SF-539 CNS it was 81.1 µM; with DU-145 prostate, 59 µM. Moreover, the TGI in the experiment with HCC-2998 colon, in the experiment on SN12C renal, with UACC-257 melanoma and in the experiment on PC-3 prostate was more than 100 µM each time.
Turning to `COc1cc(C(=O)N2CCN(C(=O)c3cc(OC)c(OC)c(OC)c3)C2=S)cc(OC)c1OC`, the GI50 in the experiment on U251 CNS is 16.3 µM; in the experiment with SNB-19 CNS, 18.5 µM; with SF-539 CNS, 14.5 µM; with DU-145 prostate, 13.6 µM; in the experiment on HCC-2998 colon it was 19 µM; with SN12C renal, 17.1 µM. Besides, the GI50 is 21.7 µM with UACC-257 melanoma and 15 µM in the experiment with PC-3 prostate. Moreover, the TGI worked out at 34.4 µM with U251 CNS; 38.1 µM in the experiment on SNB-19 CNS; 30.2 µM in the experiment with SF-539 CNS; 27.7 µM in the experiment on DU-145 prostate; 40 µM with HCC-2998 colon; 35.7 µM with SN12C renal. In addition, the TGI with UACC-257 melanoma was determined as 43.9 µM; with PC-3 prostate, 32.2 µM.
`Cc1cc(N[C@@H]2CCC[C@H](Nc3ccnc4cc(Cl)ccc34)C2)nc(N2CCCCCC2)n1`: the GI50 in the experiment with U251 CNS was 1.73 µM; with EKVX NSCLC it was 1.62 µM; with SNB-19 CNS, 2.56 µM; in the experiment with SK-MEL-5 melanoma, 1.86 µM; with SF-539 CNS it was 1.59 µM; in the experiment with DU-145 prostate, 2.99 µM. For the same compound, the GI50 is 1.72 µM in the experiment on HCC-2998 colon, 1.55 µM in the experiment on SN12C renal, 2.35 µM in the experiment with UACC-257 melanoma and 1.81 µM in the experiment on PC-3 prostate. Further, the TGI in the experiment with U251 CNS was found to be 3.41 µM; in the experiment with EKVX NSCLC, 3.84 µM; with SNB-19 CNS it was 8.08 µM; with SK-MEL-5 melanoma, 3.27 µM; with SF-539 CNS it was 3.03 µM; with DU-145 prostate, 10.6 µM. Besides, the TGI in the experiment with HCC-2998 colon is 3.29 µM; in the experiment on SN12C renal it was 3.11 µM; in the experiment on UACC-257 melanoma it was 4.19 µM; in the experiment with PC-3 prostate, 4.05 µM.
Regarding `O=c1c(F)cn(Cc2ccc(C34CC5CC(CC(C5)C3)C4)c(O)c2)c(=O)n1Cc1ccc(C23CC4CC(CC(C4)C2)C3)c(O)c1`, the GI50 in the experiment on U251 CNS is 6.89 µM; in the experiment with EKVX NSCLC, 15.8 µM; in the experiment with SNB-19 CNS, 27.5 µM; with SK-MEL-5 melanoma it was 13.9 µM; in the experiment with SF-539 CNS it was 11.5 µM; with DU-145 prostate, 8.59 µM. The GI50 with HCC-2998 colon is 17.8 µM; with SN12C renal, 10.5 µM; in the experiment on UACC-257 melanoma it was 20.7 µM; in the experiment on PC-3 prostate it was 10.7 µM. Further, the TGI in the experiment with U251 CNS is 19.5 µM; in the experiment with EKVX NSCLC, 34.8 µM; in the experiment with SNB-19 CNS, 57.1 µM; with SK-MEL-5 melanoma, 27 µM; in the experiment on SF-539 CNS, 24.4 µM; in the experiment on DU-145 prostate, 22.9 µM. Besides, the TGI in the experiment with HCC-2998 colon is 33.2 µM; with SN12C renal, 22.3 µM; with UACC-257 melanoma it was 50.7 µM; with PC-3 prostate, 24.2 µM.
`Cc1nc(Nc2cccnc2)sc1C(=O)/C=C/c1ccc(F)cc1`: the GI50 with U251 CNS was 2.95 µM; with EKVX NSCLC, 5.15 µM; in the experiment with SNB-19 CNS, 3.34 µM; in the experiment on SK-MEL-5 melanoma it was 3.64 µM; in the experiment on SF-539 CNS it was 2.46 µM; with DU-145 prostate, 3.48 µM. Further, the GI50 in the experiment with HCC-2998 colon is 4.09 µM; in the experiment with SN12C renal it was 3.17 µM; in the experiment with UACC-257 melanoma, 5.87 µM; in the experiment with PC-3 prostate it was 4.07 µM. Further, the TGI in the experiment with U251 CNS is 8.83 µM; with EKVX NSCLC, more than 100 µM; with SNB-19 CNS, 15.9 µM; in the experiment with SK-MEL-5 melanoma, 13.4 µM; with SF-539 CNS it was 7.26 µM; with DU-145 prostate, 14.8 µM. For the same compound, the TGI in the experiment on HCC-2998 colon was 15.5 µM; in the experiment on SN12C renal it was more than 100 µM; in the experiment with UACC-257 melanoma, 28.6 µM; with PC-3 prostate it was 20.1 µM.
Consider `COC(=O)[C@]12CC[C@@H](C)[C@H](C)[C@@H]1C1=CC[C@@H]3[C@@]4(C)C[C@@H](O)[C@H](O)[C@@](C)(CO)C4=CC[C@@]3(C)[C@]1(C)CC2`, for which the GI50 is 16.5 µM in the experiment on U251 CNS; 15.9 µM in the experiment with EKVX NSCLC; 18 µM with SNB-19 CNS; 12.8 µM in the experiment on SK-MEL-5 melanoma; 17.7 µM in the experiment on SF-539 CNS; 16.3 µM with DU-145 prostate. Further, the GI50 was 17.3 µM with HCC-2998 colon, 20.1 µM with UACC-257 melanoma and 12.9 µM in the experiment on PC-3 prostate. The TGI with U251 CNS came to 34.1 µM; in the experiment on EKVX NSCLC, 32.5 µM; in the experiment with SNB-19 CNS it was 38.5 µM; in the experiment on SK-MEL-5 melanoma, 27.3 µM; in the experiment with SF-539 CNS, 34.6 µM; in the experiment on DU-145 prostate, 32.6 µM. For the same compound, the figures for the TGI in the experiment on HCC-2998 colon, in the experiment on UACC-257 melanoma and with PC-3 prostate were 34.8 µM, 35.5 µM and 27.5 µM, respectively.
For the compound `CCOC(=O)N[C@H]1CCc2cc(OC)c(OC)c(OC)c2-c2ccc(SC)c(=O)cc21`, the TGI was 61.3 µM and > 100 µM with U251 CNS; more than 100 µM in the experiment on EKVX NSCLC; 91.7 µM and > 100 µM in the experiment on SNB-19 CNS; less than 0.01 µM in the experiment with SF-539 CNS; more than 69.6 µM with HCC-2998 colon; more than 100 µM in the experiment on SN12C renal. Besides, the TGI in the experiment with UACC-257 melanoma and in the experiment on PC-3 prostate was more than 100 µM throughout. In addition, the GI50 in the experiment on EKVX NSCLC was less than 0.01 µM; in the experiment on SNB-19 CNS it was less than 0.01 µM; in the experiment on SN12C renal, less than 0.01 µM; in the experiment on UACC-257 melanoma it was more than 70.5 µM.
On to `Nc1ncn([C@@H]2O[C@H](CO)[C@@H](O)[C@H]2O)c(=O)n1`, for which the GI50 is 8.49 µM in the experiment with EKVX NSCLC; 4.1 µM in the experiment on SNB-19 CNS; 2.15 µM with SK-MEL-5 melanoma; 0.775 µM in the experiment with DU-145 prostate; 0.636 µM with HCC-2998 colon; 0.594 µM with SN12C renal. Besides, the GI50 in the experiment with PC-3 prostate was 2.17 µM. The TGI in the experiment on EKVX NSCLC is more than 100 µM; in the experiment on SNB-19 CNS, more than 100 µM; in the experiment on SK-MEL-5 melanoma it was 7.04 µM; in the experiment on DU-145 prostate, 9.34 µM; in the experiment with HCC-2998 colon it was 5.55 µM; in the experiment with SN12C renal, more than 100 µM. Further, the TGI with PC-3 prostate was more than 100 µM.

The values above are taken from PubChem BioAssay (NCI).
